# Target: Neuraminidase (Influenza B virus (strain B/Lee/1940), UniProt P03474)
# Test: In vitro inhibitory activity against B/Lee/40 Influenza B Neuraminidase.
compound,measurement,value
CCC(CC)Nc1cc(C(=O)O)ccc1N1C(=O)CCC1(CO)CO,IC50,104 µM
N=C(N)Nc1cc(C(=O)O)ccc1N1C(=O)CCC1(CO)CO,IC50,8 µM
CC(=O)Nc1c(N=C(N)N)cc(C(=O)O)cc1N=C(N)N,IC50,250 µM
CCC(CC)Nc1cc(C(=O)O)ccc1N1CCCC1=O,IC50,> 5000 µM
O=C(O)c1ccc(N2C(=O)CCC2(CO)CO)cc1,IC50,> 8000 µM
NCC1CCC(=O)N1c1ccc(C(=O)O)cc1N=C(N)N (stereo unspecified),IC50,500 µM

# Source: ChEMBL document CHEMBL1132253, “Potent inhibition of influenza sialidase by a benzoic acid containing a 2-pyrrolidinone substituent” (J Med Chem, 1999)
